The values that follow come from patent US11529394B2, “Polypeptide conjugates and methods of uses” (BEIJING QL BIOPHARMACEUTICAL CO., LTD., priority 2020, dated 2022).

The conditions of data set [1]: endogenous GLP-1; cited from earlier work.
The target of data set [2] is GLP-1 receptor (Homo sapiens, UniProt P43220). To be noted: cited from earlier work.
Data set [3] relates to db/db mice. As to the kind of experiment: Non-fasting glucose in db/db mice after single subcutaneous dose. The following applies: non-fasting delta blood glucose. It is filed as in vivo. The procedure:
Method: 10 weeks old male db/db mice were injected subcutaneously with protein once. […] Delta blood glucose is glucose subtracted by baseline level. […] The area under the curve for delta blood glucose from 0 until 192 hours (AUCΔBG 0-192 h) was calculated.

Data set [4] addresses human serum albumin (Homo sapiens, UniProt P02768). As to the kind of experiment: Human serum albumin binding by surface plasmon resonance (Biacore 8K). To be noted: human serum albumin on CM5 chip, SPR.
Method: Method: Binding of molecules to serum albumin was characterized by surface plastron resonance in a Biacore 8K instrument, Serum albumin from different species was covalently bound to CM5 sensor chips surface until 4000 RU was reached. The chip was blocked by 1M ethanolamine with flowrate of 10 μL/min for 420 s, Each molecule sample was diluted and injected at a flow rate of 30 μL/min to allow for binding to chip-bound albumin for 120 s and for dissociation for 300 s. Binding buffer without molecule was sent over the chip at the flow rate of 20 seconds to allow spontaneous dissociation of bound molecule for 30 seconds.
The nature of data set [5]: Body weight loss in C57 lean mice after single subcutaneous dose. The data set is classed as in vivo, C57BL/6 mice. The method, then: Method: 10 week old male C57BL/6 mice were injected subcutaneously with protein once on Day 1. Body weight was measured daily and five animals were used for each treatment group. […] The area under the curve for body weight loss (%) from 0 until 8 days (AUC ΔBW 0-8d) was calculated.

Chain of human serum albumin (P02768 25-609): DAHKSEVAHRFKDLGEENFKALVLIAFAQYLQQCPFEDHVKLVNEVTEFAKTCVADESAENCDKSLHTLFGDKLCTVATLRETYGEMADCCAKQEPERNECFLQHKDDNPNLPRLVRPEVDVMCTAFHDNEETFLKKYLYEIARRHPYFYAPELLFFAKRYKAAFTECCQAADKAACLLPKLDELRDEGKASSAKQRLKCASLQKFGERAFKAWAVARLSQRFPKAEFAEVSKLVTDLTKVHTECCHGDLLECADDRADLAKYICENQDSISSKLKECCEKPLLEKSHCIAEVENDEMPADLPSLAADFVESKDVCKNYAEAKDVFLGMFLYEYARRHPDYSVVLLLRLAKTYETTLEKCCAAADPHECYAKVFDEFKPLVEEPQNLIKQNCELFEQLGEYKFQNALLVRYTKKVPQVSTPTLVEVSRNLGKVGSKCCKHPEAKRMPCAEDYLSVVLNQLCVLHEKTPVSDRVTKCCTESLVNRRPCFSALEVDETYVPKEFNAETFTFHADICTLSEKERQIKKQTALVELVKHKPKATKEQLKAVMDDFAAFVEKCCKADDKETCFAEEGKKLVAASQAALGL
Chain of GLP-1 receptor (P43220 24-463, species assumed): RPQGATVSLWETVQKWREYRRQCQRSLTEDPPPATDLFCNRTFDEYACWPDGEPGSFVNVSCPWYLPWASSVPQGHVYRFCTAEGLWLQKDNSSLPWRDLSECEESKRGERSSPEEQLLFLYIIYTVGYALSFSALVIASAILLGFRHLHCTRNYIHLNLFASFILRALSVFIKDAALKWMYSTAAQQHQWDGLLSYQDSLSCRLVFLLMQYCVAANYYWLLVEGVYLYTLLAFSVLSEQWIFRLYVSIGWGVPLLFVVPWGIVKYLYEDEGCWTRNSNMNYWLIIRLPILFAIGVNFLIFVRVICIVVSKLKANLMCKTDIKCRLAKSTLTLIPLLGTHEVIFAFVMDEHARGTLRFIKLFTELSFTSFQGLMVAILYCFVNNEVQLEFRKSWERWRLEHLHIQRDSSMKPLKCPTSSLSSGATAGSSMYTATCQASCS

Consider “GLP-1: endogenous Glucagon-Like Peptide-1, 30 or 31 amino acid peptide fragment (7-36 or 7-37)”, for which, in data set [1], the half-life entry is “approximately 2 minutes”.

Consider semaglutide [reference compound], for which the “loss in GLP-1 receptor binding in presence of human serum albumin (HSA) relative to unconjugated counterpart” value in data set [2] is 939 fold. For the same substance, the “AUC ΔBG 0-192 h” value is -317.0 mmol·h/L in data set [3] (3 nmol/kg s.c. once), -583.4 mmol·h/L in data set [3] (10 nmol/kg s.c. once) and -527.1 mmol·h/L in data set [3] (30 nmol/kg s.c. once). In data set [4], this substance returned an Rmax of 55.2 RU. The “AUC ΔBW 0-8 d” value in data set [5] (Study 1 (FIG. 1A and 1B), 3 nmol/kg s.c. once) is on record as −0.6 day* %; in data set [5] (Study 1 (FIG. 1A and 1B), 10 nmol/kg s.c. once) it was −11.1 day* %; in data set [5] (Study 1 (FIG. 1A and 1B), 30 nmol/kg s.c. once) it was −12.7 day* %; in data set [5] (Study 2 (FIG. 1C), 30 nmol/kg s.c. once), −9.3 day* %; in data set [5] (Study 3 (FIG. 1D), 30 nmol/kg s.c. once) it was −13.2 day* %.
